From patent publication US4166852A, “Piperazino-pyrimidines and their use as spasmolytic agents” (priority 1974, dated 1979)
Values after ≈ are worked out from the molar mass of the structure shown. Counter-ions that a name gives are not always drawn. Like-named read-outs stand apart in the source and are kept apart here.

What was measured:
[1] = tested on: isolated duodenum of the rabbit (acetylcholine); assay: spasmolytic effect on isolated duodenum, acetylcholine spasm; assay type: cell-based; conditions: Oryctolagus cuniculus, read-out: Spasmolytic effects EC 50 with respect to acetylcholine
Source text: (§1) Ges. Physiol., 102, 123, (1904) with respect to the spasms of the isolated duodenum of rabbits caused either by acetylchlorine for the spasmolytic nemotropes or by barium chloride for the spasmolytic musculotropes.

[2] = solubility; assay type: physicochemical
[3] = acute toxicity, LD 50, CD 1 mice; assay type: in vivo; conditions: mouse, in vivo
Source text: (§2) The acute toxicities of the compounds according to the invention have been determined on CD 1 (Charles RIVER) mice by intravenous and oral methods. The LD 50 of each compound has been calculated by the cumulative method of J. J. Reed and H. Muench, (Amer. J. Hyg., 1938, 27, 493).

[4] = tested on: mice; assay: analgesic activity, painful abdominal torsions test with phenylbenzoquinone; assay type: in vivo, CD 1 (Charles RIVER) mice; conditions: Mus musculus, po; mice, orally; read-out: Phenylbenzoquinone test on mice AD 50
Source text: The analgesic properties of the products according to the invention have been shown with CD 1 (Charles RIVER) mice in the painful abdominal torsions test with phenylbenzoquinone according to the technique of E. Siegmund, R. Cadmus and Go.Lu--Proc. Soc. Exp. Biol. Med., 95, 729, (1957).

[5] = tested on: isolated duodenum of the rabbit (barium chloride); assay: spasmolytic effect on isolated duodenum, barium chloride spasm; assay type: cell-based; conditions: Oryctolagus cuniculus, read-out: Spasmolytic effects EC 50 with respect to barium chloride
Source text: as §1

[6] = tested on: mouse; assay: spontaneous motility test (hypomotility), mouse; assay type: in vivo, mice; conditions: po, 1 h, orally, 60 minutes before measuring, 50% reduction of mean motility, first 5 minutes, read-out: Hypomotility ED 50
Source text: (§3) The neuroloptic effects of the compounds according to the invention have been shown with respect to the CD rat (Charles RIVER) taken orally in the catalepsy test according to S. COURVOISIER, R. DUCROT, and L. JULOU, in Psychotropic Drugs, S. GARATTINI and V. GHETTI, Edit.--ELSEVIER Publ. Co., AMSTERDAM, LONDON, NEW YORK, PRINCETON, 1957 P. 373 and also in the traction test of CD1 (Charles RIVER) mice taken orally S. COURVOISIER, Quart. Rev. Psychiat. Neurol. 17, 25 (1956), on the one hand and also in the spontaneous motility test.
This latter technique comprises keeping an account of the displacements of the mice by means of a floor of metal strips which enables the spontaneous activity of the animals to be recorded during the first 5 minutes subsequent to their being introduced into the measuring chamber. The products are dispensed 60 minutes before measuring is effected and 10 mice are used per dose. The results are expressed in ED 50 which represents the dose of substance capable of reducing the mean motility of the treated animals by 50% relative to that of the sample group which has only received the dispensing carrier.

[7] = tested on: serotonine bronchospasms; assay: anti-serotonine activity, serotonine bronchospasms; assay type: in vivo, tricoloured guinea-pig; conditions: Cavia porcellus, iv; guinea pig, intravenously; read-out: Serotonine bronchospasms ED 50
Source text: (§4) The anti-serotonine activities of the compounds according to the invention have been shown by oral administration to the CD (Charles RIVER) rats using the technique of the serotonine plantar oedema (W. Theobald and R. Domenjoz--Arzneimittel Forsch, 8, 18, 1958 and with the CD 1 (Charles RIVER) mice using the technique known as "head twitch" according to S. J. Corne, R. W. Pickering and B. T. Warner, Brit. J. Pharmacol., 20, 106, (1963). The anti-serotonine activity has also been determined on the one hand on the tricoloured guinea-pig, given intravenously, according to a method derived from H. Konzet and R. Rossler, Arch. exp. Pathol, Pharmakol., 195, 71, (1940) and on the other hand in vitro with respect to the serotonine spasm of the isolated uterus of the rat according to the technique of A. Fanchamps, W. Doepfener, H. Weidman and A. Cerletti, Schw. Med. Worsch, 90, 1940, (1960).

[8] = tested on: head twitch; assay: anti-serotonine activity, head twitch; assay type: in vivo, CD 1 (Charles RIVER) mice; conditions: Mus musculus, po; mice, orally; read-out: "Head-twitch" AD 50
Source text: as §4

[9] = tested on: dogs; assay: anti-emetic activity, apomorphine vomiting test on dogs; assay type: in vivo; conditions: for ED50: Canis lupus familiaris, po, read-out: Anti-emetic activity on dogs ED 50
Source text: The anti-emetic properties of the compounds according to the invention have been shown by oral administration of apomorphine to dogs in the vomiting test according to G. Chen and C. J. Ensor, Pharmacol. exp. Therap., 98, 24 (1950).

[10] = tested on: serotonine plantar oedema; assay: anti-serotonine activity, serotonine plantar oedema; assay type: in vivo, CD (Charles RIVER) rats; conditions: po; rat, orally; read-out: Serotonine plantar oedema AD 50
Source text: as §4

[11] = tested on: mice; assay: acute toxicity, LD 50, CD 1 mice; assay type: in vivo; conditions: intravenous
Source text: as §2

[12] = tested on: rat; assay: catalepsy test, rat; assay type: in vivo, CD rat (Charles RIVER); conditions: po, orally, read-out: Catalepsy AD 50
Source text: as §3

[13] = tested on: mouse; assay: traction test, mouse; assay type: in vivo, CD1 (Charles RIVER) mice; conditions: po, orally, read-out: Traction AD 50
Source text: as §3

[14] = intravenous, read-out: Acute toxicity for mice LD 50, intravenous
[15] = oral, read-out: Acute toxicity for mice LD 50, orally

Compound | EC50 [1] [µg/mL] | solubility in dilute hydrochloric acid [2] | solubility in ethanol (alcohol) [2] | solubility in water [2] | LD50 [3, 14] [mg/kg] | LD50 [3, 15] [mg/kg] | ED50 [4] [mg/kg] | EC50 [5] [µg/mL] | ED50 [6] [mg/kg] | ED50 [7] [mg/kg] | ED50 [8] [mg/kg] | ED50 ([9]; dogs, orally, apomorphine) [mg/kg] | ED50 [10] [mg/kg] | Acute toxicity for mice LD 50, intravenous [11] | ED50 [12] [mg/kg] | ED50 [13] [mg/kg] | ED50 [9] [mg/kg] | solubility in dilute methanesulphonic acid ([2]; dilute methanesulphonic acid) | anti-vomiting ranking ([9]; comparison within the series, dogs)
CSc1c(Cl)nc(NCCO)nc1N1CCN(C)CC1 [Example 22, 2-N-(β-hydroxyethyl)amino-4-N-methylpiperazino-6-chloro-5-methylthiopyrimidine] | > 10 | soluble | soluble | insoluble | 89 | ~600 | > 100 | > 10 | 100 | 0.16 | > 100 | 0.85 |  |  |  |  |  |  | 
CSc1c(Cl)nc(N(C)C(=O)c2ccccc2)nc1N1CCN(C)CC1 [Example 13, 2-(N-methyl-N-benzoyl)amino-4-N-methyl-piperazino-6-chloro-5-methylthio-pyrimidine hydrochloride] | 4 |  |  |  | 91 | ~600 |  | 2.6 |  |  | 300 | 1.9 | > 300 |  |  |  |  |  | 
CSc1c(Cl)nc(Nc2ccccc2)nc1N1CCN(C)CC1 [Example 4, 2-phenylamino-4-N-methylpiperazino-6-chloro-5-methylthio-pyrimidine hydrochloride] |  |  |  |  |  | ~600 |  |  |  |  | 60 |  |  | insoluble |  |  |  |  | 
C=CCNc1nc(Cl)c(SC)c(N2CCN(C)CC2)n1 [Example 21, 2-Allylamino-4-N-methylpiperazino-6-chloro-5-methylthio-pyrimidine] | 1.6 (≈ 5.1 µM) | soluble | soluble | water-insoluble | 46 | ~200 | > 100 | 1 (≈ 3.19 µM) | 28 | 0.01 | 20 | 0.8 | > 100 |  | 300 |  |  |  | 
CSc1c(Cl)nc(N)nc1N1CCN(C)CC1 [Example 6, 2-Amino-4-N-methylpiperazino-6-chloro-5-methylthio-pyrimidine hydrochloride] |  |  |  |  | 33 | ~225 |  |  |  | 1.2 | 30 |  |  |  | 100 | > 100 | 0.11 |  | 
C=CCOc1nc(NC)nc(N2CCN(C)CC2)c1SC [Example 19, 2-methylamino-4-N-methylpiperazino-5-methylthio-6-allyloxy-pyrimidine hydrochloride] | > 5 |  |  |  | 56 | ~400 | 100 | 3.1 |  |  |  | 1.5 | > 100 |  |  |  |  |  | 
COc1ccc(Nc2nc(Cl)c(SC)c(N3CCN(C)CC3)n2)cc1 [Example 32, 4'-methoxy-2-phenylamino-4-N-methylpiperazino-6-chloro-5-methylthiopyrimidine] | 5.5 (≈ 14.5 µM) | soluble |  | insoluble | 83 | ~495 | > 35 |  | 60 | 0.9 | 27 |  |  |  |  |  |  |  | 
CSc1c(Cl)nc(NC2CCCCC2)nc1N1CCN(C)CC1 [Example 23, 2-Cyclohexylamino-4-N-methylpiperazino-6-chloro-5-methylthiopyrimidine] | 70 (≈ 197 µM) | soluble | soluble | insoluble | 89 |  | 100 | 0.25 (≈ 0.702 µM) | 220 | 0.3 | 67 |  |  |  | 300 | > 300 |  |  | 
CSc1c(Cl)nc(NCc2ccccc2)nc1N1CCN(C)CC1 [Example 26, 2-Benzylamino-4-N-methylpiperazino-5-methylthio-6-chloropyrimidine] | 0.2 (≈ 0.55 µM) | scarcely soluble |  | soluble | 85 | ~525 | 35 | 0.17 (≈ 0.467 µM) | 20 | 0.05 | 17 | ~2 |  |  | 33 | 45 |  | soluble | 
CNc1nc(OC)c(SC)c(N2CCN(C)CC2)n1 [Example 17, 2-Methylamino-4-N-methylpiperazino-5-methyl-thio-6-methoxy-pyrimidine hydrochloride] |  |  |  |  | 58 | ~400 |  |  |  | 3 |  |  | 100 |  |  |  | 1.4 |  | 
CNc1nc(Cl)c(SC)c(N2CCNCC2)n1 [Example 10, 2-Methylamino-4-piperazino-6-chloro-5-methylthio-pyrimidine hydrochloride] |  |  |  |  | 57 | ~225 | 65 |  |  |  |  |  |  |  | 75 |  | 0.07 |  | the most strong anti-vomiting agents
CSc1c(Cl)nc(N2CCOCC2)nc1N1CCN(C)CC1 [Example 28, 2-Morpholino-4-N-methylpiperazino-6-chloro-5-methylthiopyrimidine] | 4.5 (≈ 13.1 µM) | soluble | soluble | insoluble | 110 | ~400 | > 100 | 1.7 (≈ 4.94 µM) | 100 | > 0.1 | 70 | > 5 | > 100 |  |  |  |  |  | 
CC(=O)Nc1nc(Cl)c(C)c(N2CCN(C)CC2)n1 [Example 14, 2-Acetylamino-4-N-methylpiperazino-5-methyl-6-chloro-pyrimidine] |  |  |  |  |  | ~270 | 35 |  |  |  |  | 3.7 |  | insoluble |  |  |  |  | 
CCNc1nc(Cl)c(SC)c(N2CCN(C)CC2)n1 [Example 1, 2-Ethylamino-4-N-methyl-piperazino-6-chloro-5-methylthio-pyrimidine hydrochloride] | 5 |  |  |  | 41 | ~200 | 35 | 1.6 |  | 6 | 30 |  | 160 |  | 85 | > 35 | 0.35 |  | 
CCOCCOc1nc(NC)nc(N2CCN(C)CC2)c1SC [Example 20, 2-Methylamino-4-N-methylpiperazino-5-methylthio-6-β-ethoxyethoxy-pyrimidine hydrochloride] |  |  |  |  |  | ~265 |  |  |  |  |  |  |  | insoluble |  |  |  |  | 
